Reference: patent publication US10494610B2, “Three dimensional matrix for cancer stem cells” (UNIVERSITY OF SOUTH CAROLINA, priority 2013, dated 2019)
Entries after “also recorded” stand apart in the source; their conditions may differ. No end group written: not given here.

Assays:
4T1 cells [1] = test: Flow cytometry of CD44+/CD24- cells isolated from the gel; assay type: cell-based, mouse; conditions: 4T1, 9 days after encapsulation in 5 kPa gel with or without conjugated peptide (about 6% without gel)
Procedure: Cells encapsulated in the gel were fixed with 4% paraformaldehyde for 30 min followed by washing with PBS. Next, the gel was incubated in oxidative degradation solution (0.1M CoCl in 20% hydrogen peroxide). After the gel was degraded, cells were washed three times with cold PBS containing 5% BSA. MCF7 cells were incubated with phycoerythrin (PE) mouse anti-human CD24 and fluorescein isothiocyanate (FITC) mouse anti-human CD44 (BD Biosciences, Franklin Lakes, N.J.), and 4T1 cells were incubated with PE-anti-mouse CD24 and FITC-anti-mouse CD44 (eBioscience, San Diego, Calif.) in 100 μl PBS with 5% BSA for 45 min on ice in the dark. Cells were then washed with cold PBS with 5% BSA three times and analyzed by a flow cytometer (FC500, Beckman Coulter, Brea, Calif.). Flow cytometry was done multiple times on each sample to ascertain reproducibility of the results.

[2] = system: 4T1 mouse breast carcinoma cells; test: Tumorsphere formation, size and cell number of cells encapsulated in the gel; assay type: cell-based; conditions: 9 days; for tumorsphere formation: 4T1 in 5 kPa PEGDA gel with peptide conjugated (conj) or dissolved (dis); for cell number density compared with the gel without peptide: 4T1 in PEGDA gel with peptide conjugated (conj) or dissolved (dis)
Procedure: 4T1 and MCF7 tumor cells were cultured in RMPI-1640 medium with 10% FBS under 5% CO2 at 37° C. Cells were trypsinized after reaching 70% confluency. PEGDA macromer was dissolved in PBS and sterilized by filtration with a 0.2 μm filter. Next, 1.4×10^5/mL 4T1 or MCF7 cells suspended in PBS were added to the macromer solution with final PEGDA concentrations ranging 5-25 wt % and mixed gently with a pre-sterilized glass rod. The cell-suspended hydrogel precursor solution was crosslinked with UV for 10 min. After crosslinking, the gel was cut into disks and incubated in stem cell culture medium in ultra-low attachment tissue culture plates under 5% CO2. The stem cell medium consisted of DMEM-F12 supplemented with 0.4% bovine serum albumin (BSA), 5 μg/mL insulin, 40 ng/mL basic fibroblast growth factor (bFGF), 20 ng/mL EGF, 5% horse serum, 100 U/mL penicillin, and 100 μg/mL streptomycin.
To determine cell viability, gels were stained with cAM/EthD live/dead dyes 2 days after encapsulation to image live and dead cells, respectively. Stained samples were imaged with an inverted fluorescent microscope (Nikon Eclipse Ti-ε, Nikon, Melville, N.Y.). Cell viability was quantified by dividing the image into smaller squares and counting the number of live and dead cells. At each time point, the gel samples were removed from the culture media and stained for imaging. Samples were rinsed twice with PBS and fixed with 4% paraformaldehyde for 3 h. After fixation, cells were permeabilized using PBS containing 0.1% Triton X-100 for 5 min. After rinsing, cells were incubated with Alexa 488 phalloidin (1:200 dilution) and DAPI (1:5000 dilution) to stain actin filaments of the cell cytoskeleton and cell nuclei, respectively. Stained samples were imaged with a Nikon Eclipse Ti-ε inverted fluorescent microscope. For visualization of cell uniformity, a confocal fluorescent microscope (Zeiss LSM-510 META Axiovert, Carl Zeiss, Germany) was used to obtain 2D images (90 μm thick layers) of the stained gels in the direction of thickness. For determination of cell number, the gel samples were homogenized, cells were lysed, and aliquots were used to measure the double stranded DNA (dsDNA) content using a Quant-it PicoGreen assay. Briefly, an aliquot (100 μL) of the working solution was added to 100 μL of the cell lysate and incubated for 4 min at ambient conditions. The fluorescence of the solution was measured with a plate reader (Synergy HT, Bio-Tek, Winooski, Vt.) at emission and excitation wavelength of […], respectively. Measured fluorescent intensities were correlated to cell numbers using a calibration curve constructed with 4T1 or MCF7 cells of known concentration ranging from zero to […].
The tumor cells were cultured in RMPI-1640 medium with 10% FBS under 5% CO2 at 37° C. Cells were trypsinized after reaching 70% confluency. The synthesized acrylamide-terminated peptides were added to the PEGDA macromer solution and the mixture was sterilized by filtration (220 nm filter). Next, 1.4×10^5/ml cells (4T1, MCF7, or MCF10a) were added to the macromer solution and mixed gently with a pre-sterilized glass rod. The cell-suspended hydrogel precursor solution was crosslinked with UV for 10 min as described above. After cross-linking, the gel was cut into disks and incubated in stem cell culture medium on ultra-low attachment tissue culture plates under 5% CO2. The stem cell medium consisted of DMEM-F12 supplemented with 0.4% BSA, 5 μg/ml insulin, 40 ng/ml bFGF, 20 ng/ml EGF, 5% horse serum, 100 U/ml penicillin, and 100 μg/ml streptomycin. For growing tumorspheres in suspension, trypsinized cells (4T1 or MCF7) were cultured on ultra-low attachment tissue culture plates with stem cell culture medium under 5% CO2 at 37° C.
To determine cell viability, gels were stained with cAM and EthD dyes after cell encapsulation to image live and dead cells, respectively. […]

4T1 cells [3] = test: RT-qPCR mRNA expression of CSC related markers in encapsulated cells; assay type: cell-based, mouse; conditions: for CD44 mRNA marker expression / ABCG2 mRNA marker expression / CD24 mRNA marker expression / SCA1 mRNA marker expression: 4T1 in PEGDA gel with peptide; for EGFR mRNA marker expression: 4T1 in peptide-conjugated gels
Procedure: Total cellular RNA of the gel samples was isolated using TRIzol (Invitrogen). 250 ng of the extracted purified RNA was reverse transcribed to cDNA by SuperScript II Reverse Transcriptase (Invitrogen) with the random primers. The obtained cDNA was subjected to real time quantitative polymerase chain reaction (RT-qPCR) amplification with appropriate gene specific primers. RT-qPCR was performed to analyze the differential expression of CSC markers CD44 (4T1 and MCF7), CD24 (4T1), ABCG2 (4T1 and MCF7), and SCA1 (4T1) genes with SYBR green RealMasterMix (Eppendorf, Hamburg, Germany) using Bio-Rad iCycler PCR system (Bio-Rad, Hercules, Calif.). The expression level of GAPDH gene was used as an internal control. The primers for real time PCR were designed by Primer 3 software. The following forward and reverse primers synthesized by Integrated DNA technologies (Coralville, Iowa) were used: mouse GAPDH: forward 5′-CATGGCCTTCCGTGTTCCTA-3′ (SEQ ID NO: 1) and reverse 5′-CCTGCTTCACCACCTTCTTGA-3′ (SEQ ID NO: 2); mouse CD44: forward 5′-GAATGTAACCTGCCGCTACG-3′ (SEQ ID NO: 3) and reverse 5′-GGA GGT GTT GGA CGT GAC-3′ (SEQ ID NO: 4); mouse CD24: forward 5′-CTTCTGGCACTGCTCCTACC-3′ (SEQ ID NO: 5) and reverse 5′-GAGAGAGAGCCAGGAGACCA-3′ (SEQ ID NO: 6); mouse ABCG2: forward 5′-AGCAGCAAGGAAAGATCCAA-3′ (SEQ ID NO: 7) and reverse 5′-GGAATACCGAGGCTGATGAA-3′ (SEQ ID NO: 8); mouse SCA1: forward 5′-TGG ACA CTT CTC ACA CTA-3′ (SEQ ID NO: 9) and reverse 5′-CAGAGCAAGAGGGTCTGCAGGAG-3′ (SEQ ID NO: 10); human GAPDH forward 5′-GAGTCAACGGATTTGGTCGT-3′ (SEQ ID NO: 11) and reverse 5′-TTGATTTTGGAGGGATCTCG-3′ (SEQ ID NO: 12); human CD44 forward 5′-GGCTTTCAATAGCACCTTGC-3′ (SEQ ID NO: 13) and reverse 5′-ACACCCCTGTGTTGTTTGCT-3′ (SEQ ID NO: 14); human ABCG2 forward 5′-CACCTTATTGGCCTCAGGAA-3′ (SEQ ID NO: 15) and reverse 5′-CCTGCTTGGAAGGCTCTATG-3′ (SEQ ID NO: 16). The relative gene expression levels were quantified by the 2^-ddCT method as described. The relative gene expressions were expressed as fold difference compared with that at time zero.
Total cellular RNA of the gel samples was isolated using TRIzol (Invitrogen). 250 ng of the extracted purified RNA was reverse transcribed to cDNA by SuperScript II Reverse Transcriptase (Invitrogen) with the random primers. The obtained cDNA was subjected to real time quantitative polymerase chain reaction (RT-qPCR) amplification with the appropriate gene specific primers. RT-qPCR was performed to analyze the differential expression of CSC markers CD44, CD24, ABCG2, and SCA1 genes with SYBR green RealMasterMix (Eppendorf, Hamburg, Germany) using Bio-Rad iCycler PCR system (Bio-Rad, Hercules, Calif.). The expression level of GAPDH gene was used as an internal control. The primers for real time PCR were designed by Primer 3 software. The forward and reverse primer sequences, listed in the table below, were synthesized by Integrated DNA technologies (Coralville, Iowa). The relative gene expression levels were quantified by the 2^(−ΔΔCT) method. Briefly, ΔCT was calculated as ΔCT=CT^target gene−CT^GAPDH. ΔΔCT of the target gene was calculated as ΔΔCT=ΔCT^experimental group−ΔCT^reference group. The reference was the first time point (right after cells were encapsulated in the gel). The relative gene expression (fold-change compared to the reference time point) was calculated as 2^(−ΔΔCT).

4T1 cells [4] = test: Tumor growth in vivo of cell encapsulated gels implanted subcutaneously; set-up: species or system syngeneic Balb/C mice; conditions: 4T1 cells in dPEGDA gel, subcutaneous, 4 weeks after inoculation
Procedure: To test tumor formation ability of 4T1 cells in the hydrogel, the cell encapsulated gels were cultured in vitro in the stem cell medium for 9 days as described above. After tumorsphere formation, gel pieces containing 1×10^5 tumorsphere cells were implanted subcutaneously in syngeneic Balb/C mice (6 mice/group). Groups included 4T1 tumorsphere cells, grown on ultra-low attachment plates, and injected subcutaneously (control group), degradable version of the PEGDA gel (dPEGDA) without tumor cells (control group), 4T1 cells encapsulated in the dPEGDA and cultured in vitro for 9 days prior to implantation, and 4T1 cells encapsulated in CD44BP-conjugated dPEGDA gel and cultured in vitro for 9 days prior to implantation. When tumors became measurable, tumor size and growth rate were measured and calculated. Mice were euthanized when tumor volume reached above 1000 mm^3 or 4 weeks after inoculation.

[5] = 4T1 in peptide-conjugated gel, 9 days
[6] = 4T1 in peptide-conjugated gel, 3 days

Substance	percentage of CD44+/CD24− cells (4T1 cells [1])	tumorsphere formation [2]	cell number density compared with the gel without peptide [2]	CD44 mRNA marker expression (4T1 cells [3]; 9 days)	expression of integrin αV (4T1 cells [3]; 4T1 in peptide-conjugated gel)	expression of integrin β3 (4T1 cells [3]; 4T1 in peptide-conjugated gel)	expression of E-Cadherin (4T1 cells [3]; [5])	EGFR mRNA marker expression (4T1 cells [3]; 9 days)	tumor formation in vivo (4T1 cells [4])	tumor formation in vivo (4T1 cells [4]; listed as CD44BP)	tumorsphere formation ([2]; listed as CD44BP)	cell number density compared with the gel without peptide ([2]; listed as CD44BP)	ABCG2 mRNA marker expression (4T1 cells [3]; 9 days)	CD24 mRNA marker expression (4T1 cells [3]; 9 days)	SCA1 mRNA marker expression (4T1 cells [3]; 9 days)	CD44 mRNA marker expression (4T1 cells [3]; 9 days, listed as CD44BP)	size of cell aggregates / spheres ([2]; 4T1 in peptide-conjugated gels)	expression of E-Cadherin (4T1 cells [3]; [6])	expression of N-Cadherin (4T1 cells [3]; [6])
GRGDS [IBP]	5.4%	completely abolished	reduced cell number	decreased	significantly increased	significantly increased	low expressions	decreased	–	–	–	–	–	–	–	–	–	–	–
RLVSYNGIIFFLK [conj CD44BP] (RLVSYNGIIFFLK-NH2; also: conjugated to PEGDA gel, site not given here)	6.5%	completely abolished sphere formation	strongest effect on cell density	decreased expressions	reduced	reduced	low expressions	decreased	did not form a visible tumor	Tumor growth was not observed	inhibits tumorsphere formation; also recorded: completely abolished	reduced cell number	decreased expressions	increased expression	decreased expressions	decreased	–	–	–
RLVSYNGIIFFLK [dis CD44BP, CD44BP dissolved in the gel and in the culture medium]	–	did not inhibit sphere formation	lower	high expressions	–	–	–	–	–	–	–	–	high expressions	low expression	high expressions	–	–	–	–
VLFGFLKIYSRIN [conj s-CD44BP, reference compound]	–	no significant effect	lower	high expressions	–	–	–	–	–	–	–	–	high expressions	low expression	high expressions	–	–	–	–
WQPPRARI [FHBP]	about 21%	increased; also recorded: enhanced	higher cell number	significantly higher	reduced	reduced	much higher than that in other groups	increased	–	–	–	–	–	–	–	–	larger spheres	decreased	increased
